Data as given in ChEMBL document CHEMBL3352224, “Synthesis and biological evaluation of piperlongumine derivatives as potent anti-inflammatory agents” (Bioorg Med Chem Lett, 2014).

How the values were obtained:
[1] = system: RAW264.7; experiment: Antiinflammatory activity in mouse RAW264.7 cells assessed as inhibition of LPS-induced NO production at 10 uM; format: functional
[2] = Cytotoxicity against mouse RAW264.7 cells assessed as cell proliferation at 1 uM; format: cell-based; conditions: read-out: Activity
[3] = Cytotoxicity against mouse RAW264.7 cells assessed as cell proliferation at 10 uM; format: cell-based; conditions: read-out: Activity
[4] = system: RAW264.7; experiment: Antiinflammatory activity in mouse RAW264.7 cells assessed as inhibition of LPS-induced NO production at 1 uM; format: functional
[5] = system: RAW264.7; experiment: Antiinflammatory activity in mouse RAW264.7 cells assessed as inhibition of LPS-induced NO production; format: functional, cell-based

| SMILES | IC50 [5] | inhibition at 10 µM [1] | viability at 1 µM [2] | viability at 10 µM [3] | inhibition at 1 µM [4] |
| --- | --- | --- | --- | --- | --- |
| COc1cc(/C=C/C(=O)N2CCC2=O)cc(OC)c1OC | 64 µM | 22% | 97% | 92% | 1% |
| COc1cc(/C=C/C(=O)NC(C)=O)cc(OC)c1OC | 341 µM | 16% | 104% | 104% | -1% |
| COc1cc(/C=C/C(=O)N2CCCC2=O)cc(OC)c1OC | 80 µM | 28% | 105% | 102% | 1% |
| CCC(=O)NC(=O)/C=C/c1cc(OC)c(OC)c(OC)c1 | 64 µM | 16% | 97% | 103% | -1% |

These reach a lower IC50 [5]. Values come first.

| IC50 [5] | SMILES | inhibition at 10 µM [1] | viability at 1 µM [2] | viability at 10 µM [3] | inhibition at 1 µM [4] |
| --- | --- | --- | --- | --- | --- |
| 3 µM | COc1cc(/C=C/C(=O)N2CCC=CC2=O)cc(OC)c1OC [PIPLARTINE] | 91% | 115% | 77% | 11% |
| 14 µM | COc1cc(/C=C/C(=O)N2CCCCC2=O)cc(OC)c1OC | 46% | 107% | 101% | 1% |
